Biological target: T1, hNR2B (Homo sapiens, UniProt Q05586+Q13224)
T1 construct: expressed in transfected cells; host or cells: Xenopus laevis oocytes, cRNA-injected
Assay: Electrophysiology NMDA receptor experiments: two electrode voltage-clamp in Xenopus laevis oocytes, hNR2B IC50
Format: cell-based
Conditions: hNR2B activity class, 50 μM glutamate, 30 μM glycine, read-out: Activity
Experimental: (§1) Stage V and VI oocytes were surgically removed from the ovaries of large, well-fed and healthy Xenopus laevis anesthetized with 3-amino-benzoic acid ethyl ester (3 gm/l). […] Oocytes were then washed in the same solution supplemented with 1.8 mM CaCl2 and maintained in Barth's solution comprised of (in mM): 88 NaCl, 1 KCl, 2.4 NaHCO3, 10 HEPES, 0.82 MgSO4, 0.33 Ca(NO3)2, and 0.91 CaCl2 and supplemented with 100 μg/ml gentamycin, 10 μg/ml streptomycin, and 10 μg/ml penicillin.
(§2) Two electrode voltage-clamp recordings were made 2-7 days post-injection. Oocytes were placed in a dual-track plexiglass recording chamber with a single perfusion line that splits in a Y-configuration to perfuse two oocytes. Dual recordings were made at room temperature (23° C.) using two Warner OC725B two-electrode voltage clamp amplifiers, arranged as recommended by the manufacturer. Glass microelectrodes (1-10 Megaohms) were filled with 300 mM KCl (voltage electrode) or 3 M KCl (current electrode). The bath clamps communicated across silver chloride wires placed into each side of the recording chamber, both of which were assumed to be at a reference potential of 0 mV. Oocytes were perfused with a solution comprised of (in mM) 90 NaCl, 1 KCl, 10 HEPES, 10 EDTA and 0.5 BaCl2; pH 7.4, adjusted by addition of NaOH. Oocytes were recorded under voltage clamp at −40 mV. Final concentrations for glutamate and glycine were 50 μM and 30 μM, respectively. […] Dose response curves consisting of four to eight concentrations were obtained in this manner. The baseline leak current at −40 mV was measured before and after recording, and the full recording linearly corrected for any change in leak current. The level of inhibition by applied experimental compounds was expressed as a percent of the initial glutamate response, and averaged together across oocytes from multiple experiments.
(§3) For NMDA receptor subtype selectivity experiments human GluN1/GluN2A, GluN1/GluN2C, and GluN1/GluN2D cRNAs were expressed in Xenopus laevis as described above. Here, 10 μM concentrations of the antagonist was perfused with 50 μM glutamate and 30 μM glycine onto the oocyte for two min and the remaining current in the presence of the antagonist was compared to the maximal current obtained with 50 μM glutamate and 30 μM glycine alone (defined as 100%). When IC50 determinations were made against other NMDA receptor subtypes the protocol as described above was followed.

T1 sequence (Q13224 27-1484, other chains not shown): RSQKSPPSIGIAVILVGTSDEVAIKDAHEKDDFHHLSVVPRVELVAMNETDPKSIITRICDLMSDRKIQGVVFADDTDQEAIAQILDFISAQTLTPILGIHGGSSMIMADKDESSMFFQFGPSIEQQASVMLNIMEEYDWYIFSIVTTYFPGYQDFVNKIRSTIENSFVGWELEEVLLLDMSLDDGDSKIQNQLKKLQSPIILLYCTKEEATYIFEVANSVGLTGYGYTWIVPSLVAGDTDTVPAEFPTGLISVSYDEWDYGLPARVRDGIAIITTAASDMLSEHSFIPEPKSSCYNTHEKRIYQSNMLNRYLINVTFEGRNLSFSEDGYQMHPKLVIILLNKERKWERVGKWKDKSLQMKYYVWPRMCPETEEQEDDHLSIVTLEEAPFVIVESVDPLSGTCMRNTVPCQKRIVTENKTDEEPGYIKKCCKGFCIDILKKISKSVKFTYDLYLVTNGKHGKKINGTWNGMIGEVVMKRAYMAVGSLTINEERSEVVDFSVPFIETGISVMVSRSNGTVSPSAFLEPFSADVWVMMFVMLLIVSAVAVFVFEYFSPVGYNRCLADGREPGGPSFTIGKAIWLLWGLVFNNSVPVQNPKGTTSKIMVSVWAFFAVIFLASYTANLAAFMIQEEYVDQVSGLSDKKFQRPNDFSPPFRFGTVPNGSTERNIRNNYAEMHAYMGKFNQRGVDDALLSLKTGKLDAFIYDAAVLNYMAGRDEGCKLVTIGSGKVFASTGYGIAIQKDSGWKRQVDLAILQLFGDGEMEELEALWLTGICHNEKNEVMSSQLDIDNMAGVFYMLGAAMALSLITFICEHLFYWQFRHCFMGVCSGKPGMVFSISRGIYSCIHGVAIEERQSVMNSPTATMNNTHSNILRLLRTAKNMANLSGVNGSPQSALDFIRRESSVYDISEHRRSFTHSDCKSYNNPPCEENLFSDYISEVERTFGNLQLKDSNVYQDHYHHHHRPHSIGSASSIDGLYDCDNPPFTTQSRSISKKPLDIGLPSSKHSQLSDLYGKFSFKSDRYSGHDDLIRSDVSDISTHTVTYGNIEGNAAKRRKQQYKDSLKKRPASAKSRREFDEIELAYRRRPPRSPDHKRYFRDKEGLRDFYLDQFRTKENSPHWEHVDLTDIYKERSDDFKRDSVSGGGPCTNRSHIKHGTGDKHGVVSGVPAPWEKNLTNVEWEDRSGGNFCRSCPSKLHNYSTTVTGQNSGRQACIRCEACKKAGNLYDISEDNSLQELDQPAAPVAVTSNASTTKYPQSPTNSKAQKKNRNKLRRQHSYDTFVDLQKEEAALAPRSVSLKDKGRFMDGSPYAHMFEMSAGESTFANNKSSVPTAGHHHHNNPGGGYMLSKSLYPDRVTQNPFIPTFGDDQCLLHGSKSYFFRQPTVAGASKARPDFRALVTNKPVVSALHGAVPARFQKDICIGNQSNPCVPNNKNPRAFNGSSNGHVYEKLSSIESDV

| Structure (SMILES) | IC50 [nM] |
| --- | --- |
| Oc1ccc(CCc2nc(Nc3ccc(OC(F)(F)F)cc3)no2)cc1 [Example 224] | 201 to 1000 |
| Oc1ccc(CCc2nc(Nc3ccc(Cl)cc3)no2)cc1 [Example 225] | 201 to 1000 |
| Oc1ccc(CCc2nc(Nc3ccc(OC(F)F)cc3)no2)cc1 [Example 226] | 201 to 1000 |
| Fc1cc(Nc2noc(CCc3ccc4cn[nH]c4c3)n2)ccc1Cl [Example 227] | > 10000 |
| Fc1cc(Nc2noc(CCc3cccc4[nH]ncc34)n2)ccc1Cl [Example 228] | 1000 to 10000 |
| FC(F)Oc1ccc(Nc2noc(CCc3ccc4cn[nH]c4c3)n2)cc1Cl [Example 230] | < 200 |
| FC(F)Oc1ccc(Nc2noc(CCc3cccc4[nH]ncc34)n2)cc1Cl [Example 231] | 1000 to 10000 |
| Oc1ccc(CCc2nc(Nc3ccc(Cl)c(Cl)c3)no2)cc1 [Example 232] | 1000 to 10000 |
| Fc1cc(Nc2noc(CCc3cnc4[nH]ncc4c3)n2)ccc1OC(F)F [Example 233] | < 200 |
| FC(F)Oc1ccc(Nc2noc(CCc3ccc4[nH]nc(Cl)c4c3)n2)cc1Cl [Example 234] | 1000 to 10000 |
| Cc1cc(Nc2noc(C3CC3c3ccc4[nH]ncc4c3)n2)ccc1OC(F)F (centres unmarked) [Example 236] | 201 to 1000 |
| Fc1cc(Nc2noc(C3CC3c3ccc4[nH]ncc4c3)n2)ccc1OC(F)F (centres unmarked) [Example 238] | < 200 |
| O=C1CCc2cc(OCc3nnc(Nc4ccc(C(F)(F)F)cc4)s3)ccc2N1 [Example 242] | < 200 |
| O=c1ccc2cc(OCc3nnc(Nc4ccc(Cl)c(Cl)c4)s3)ccc2[nH]1 [Example 243] | < 200 |
| O=c1ccc2cc(OCc3nnc(Nc4ccc(Cl)cc4)s3)ccc2[nH]1 [Example 244] | < 200 |
| O=c1ccc2cc(OCc3nnc(Nc4ccc(OC(F)(F)F)cc4)s3)ccc2[nH]1 [Example 245] | < 200 |
| O=C1CCc2cc(OCc3nnc(Nc4ccc(OC(F)(F)F)cc4)s3)ccc2N1 [Example 247] | < 200 |
| O=C1CCc2cc(OCc3nnc(NCc4ccc(Cl)c(Cl)c4)s3)ccc2N1 [Example 248] | 201 to 1000 |
| O=c1ccc2cc(OCc3nnc(NCc4ccc(Cl)c(Cl)c4)s3)ccc2[nH]1 [Example 249] | 201 to 1000 |
| O=C1CCc2cc(OCc3nnc(Nc4ccc(Cl)cc4)s3)ccc2N1 [Example 250] | 201 to 1000 |
| O=c1ccc2cc(OCc3cc(Nc4ccc(OC(F)F)c(Cl)c4)no3)ccc2[nH]1 [Example 255] | < 200 |
| O=c1ccc2cc(OCc3cc(Nc4ccc(Cl)c(F)c4)no3)ccc2[nH]1 [Example 256] | < 200 |

| Structure (SMILES) | IC50 [nM] |
| --- | --- |
| FC(F)Oc1ccc(Nc2cc(COc3ccc4[nH]ncc4c3)on2)cc1Cl [Example 258] | < 200 |
| O=c1ccc2cc(OCc3cc(Nc4ccc(OC(F)F)cc4)no3)ccc2[nH]1 [Example 260] | < 200 |
| COc1ccc(Nc2cc(COc3ccc4[nH]c(=O)ccc4c3)on2)cc1Cl [Example 261] | < 200 |
| Cc1ccc(Nc2cc(COc3ccc4[nH]c(=O)ccc4c3)on2)cc1C [Example 262] | 1000 to 10000 |
| O=c1ccc2cc(OCc3cc(Nc4ccc(Cl)c(C(F)(F)F)c4)no3)ccc2[nH]1 [Example 263] | 1000 to 10000 |
| O=c1ccc2cc(OCc3cc(Nc4ccc(C(F)(F)F)cc4)no3)ccc2[nH]1 [Example 264] | < 200 |
| CCc1ccc(Nc2cc(COc3ccc4[nH]c(=O)ccc4c3)on2)cc1 [Example 265] | < 200 |
| CCCc1ccc(Nc2cc(COc3ccc4[nH]c(=O)ccc4c3)on2)cc1 [Example 266] | > 10000 |
| O=c1ccc2cc(OCc3cc(Nc4ccc(OC(F)F)c(F)c4)no3)ccc2[nH]1 [Example 267] | < 200 |
| Cc1cc(Nc2cc(COc3ccc4[nH]c(=O)ccc4c3)on2)ccc1OC(F)F [Example 268] | < 200 |
| O=c1ccc2cc(OCc3cc(Nc4ccc(C(F)(F)F)c(Cl)c4)no3)ccc2[nH]1 [Example 269] | < 200 |
| Cc1cc(Nc2cc(COc3ccc4[nH]c(=O)ccc4c3)on2)ccc1F [Example 270] | 1000 to 10000 |
| Cc1ccc(Nc2cc(COc3ccc4[nH]ncc4c3)on2)cc1F [Example 271] | < 200 |
| Cc1cc(Nc2cc(COc3ccc4[nH]ncc4c3)on2)ccc1OC(F)F [Example 272] | < 200 |
| CCc1ccc(Nc2cc(COc3ccc4[nH]ncc4c3)on2)cc1 [Example 273] | 1000 to 10000 |
| Fc1cc(Nc2cc(COc3ccc4[nH]ncc4c3)on2)ccc1OC(F)F [Example 274] | < 200 |
| FC(F)Oc1ccc(Nc2cc(COc3ccc4[nH]ncc4c3)on2)cc1 [Example 275] | < 200 |
| Cn1c(COc2ccc3[nH]c(=O)ccc3c2)nnc1Nc1ccc(OC(F)(F)F)cc1 [Example 279] | < 200 |
| Cn1c(CCNc2ncnc3[nH]ncc23)nnc1Nc1ccc(OC(F)F)cc1 [Example 280] | < 200 |
| CCn1c(COc2ccc3[nH]c(=O)ccc3c2)nnc1Nc1ccc(OC(F)F)cc1 [Example 281] | < 200 |
| O=C1CCc2cc(OCc3nnc(Nc4ccc(Cl)cc4)[nH]3)ccc2N1 [Example 283] | 201 to 1000 |

Same assay, conditions: voltage clamp -40 mV, 50 μM glutamate, 30 μM glycine, read-out: hNR2B IC50

| Structure (SMILES) | IC50 [nM] |
| --- | --- |
| Cc1cc(Nc2noc(C3CC3c3ccc4[nH]c(=O)ccc4c3)n2)ccc1OC(F)F (centres unmarked) [Example 235, 6-(2-(3-((4-(difluoromethoxy)-3-methylphenyl)amino)-1,2,4-oxadiazol-5-yl)cyclopropyl)quinolin-2(1H)-one] | 44 |
| O=C1CCc2cc(OCc3noc(Nc4ccc(Cl)c(Cl)c4)n3)ccc2N1 [Example 239, 6-((5-((3,4-dichlorophenyl)amino)-1,2,4-oxadiazol-3-yl)methoxy)-3,4-dihydroquinolin-2(1H)-one] | 3600 |
| O=C1CCc2cc(OCc3nnc(Nc4ccc(Cl)c(Cl)c4)s3)ccc2N1 [Example 240] | 266 |
| O=c1ccc2cc(OCc3nnc(Nc4ccc(C(F)(F)F)cc4)s3)ccc2[nH]1 [Example 241] | 30 |
| O=c1ccc2cc(OCc3nnc(NCc4ccc(Cl)nc4)s3)ccc2[nH]1 [Example 251] | 9400 |
| O=C1CCc2cc(OCc3csc(Nc4ccc(Cl)c(Cl)c4)n3)ccc2N1 [Example 252, 6-((2-(3,4-dichlorophenylamino)thiazol-4-yl)methoxy)-3,4-dihydroquinolin-2(1H)-one] | 24000 |
| O=c1ccc2cc(OCc3cc(NCc4ccc(OC(F)F)cc4)no3)ccc2[nH]1 [Example 253, 6-((3-(4-(difluoromethoxy)benzylamino)isoxazol-5-yl)methoxy)quinolin-2(1H)-one] | 321 |
| O=c1ccc2cc(OCc3cc(Nc4ccc(Cl)c(Cl)c4)no3)ccc2[nH]1 [Example 254] | 193 |
| O=c1ccc2cc(OCc3cc(Nc4ccc(Cl)c(F)c4)no3)ccc2[nH]1 [Example 257] | 10 |
| Cn1c(COc2ccc3[nH]c(=O)ccc3c2)nnc1Nc1ccc(Cl)c(Cl)c1 [Example 276, 6-((5-(3,4-dichlorophenylamino)-4-methyl-4H-1,2,4-triazol-3-yl)methoxy)quinolin-2(1H)-one] | 24 |
| Cn1c(CCc2ccc3[nH]ncc3c2)nnc1Nc1ccc(OC(F)F)cc1 [Example 277, 5-(2-(1H-indazol-5-yl)ethyl)-N-(4-(difluoromethoxy)phenyl)-4-methyl-4H-1,2,4-triazol-3-amine] | 104 |
| Cn1c(COc2ccc3[nH]c(=O)ccc3c2)nnc1Nc1ccc(OC(F)F)cc1 [Example 278] | 90 |
| O=c1ccc2cc(OCc3nnc(Nc4ccc(Cl)cc4)[nH]3)ccc2[nH]1 [Example 282] | 290 |
| O=C1CCc2cc(OCc3nnc(Cc4ccc(Cl)c(Cl)c4)[nH]3)ccc2N1 [Example 284, 6-((5-(3,4-dichlorobenzyl)-4H-1,2,4-triazol-3-yl)methoxy)-3,4-dihydroquinolin-2(1H)-one] | 20000 |
| O=c1ccc2cc(OCc3nnc(Cc4ccc(Cl)c(Cl)c4)[nH]3)ccc2[nH]1 [Example 285, 6-((5-(3,4-dichlorobenzyl)-4H-1,2,4-triazol-3-yl)methoxy)quinolin-2(1H)-one] | 5000 |
| O=C1CCc2cc(OCc3nnc(-c4ccc(Cl)cc4)[nH]3)ccc2N1 [Example 286, 6-((5-(4-chlorophenyl)-4H-1,2,4-triazol-3-yl)methoxy)-3,4-dihydroquinolin-2(1H)-one] | 3000 |
| O=C1CCc2cc(OCc3nc(Cc4ccc(Cl)cc4)no3)ccc2N1 [Example 287, 6-((3-(4-chlorobenzyl)-1,2,4-oxadiazol-5-yl)methoxy)-3,4-dihydroquinolin-2(1H)-one] | 3800 |
| O=C1CCc2cc(OCCCc3noc(-c4ccc(Cl)cc4)n3)ccc2N1 [Example 288, 6-(3-(5-(4-chlorophenyl)-1,2,4-oxadiazol-3-yl)propoxy)-3,4-dihydroquinolin-2(1H)-one] | > 10000 |
| O=c1ccc2cc(OCc3nnc(Cc4ccc(Cl)c(Cl)c4)o3)ccc2[nH]1 [Example 289, 6-((5-(3,4-dichlorobenzyl)-1,3,4-oxadiazol-2-yl)methoxy)quinolin-2(1H)-one] | 2400 |
| O=C1CCc2cc(OCc3nnc(C(O)c4ccc(Cl)c(Cl)c4)o3)ccc2N1 (centres unmarked) [Example 290, 6-((5-((3,4-dichlorophenyl)(hydroxy)methyl)-1,3,4-oxadiazol-2-yl)methoxy)-3,4-dihydroquinolin-2(1H)-one] | 4800 |
| O=C1CCc2cc(OCCNc3nnc(-c4ccc(C(F)(F)F)cc4)o3)ccc2N1 [Example 291, 6-(2-(5-(4-(trifluoromethyl)phenyl)-1,3,4-oxadiazol-2-ylamino)ethoxy)-3,4-dihydroquinolin-2(1H)-one] | 1200 |

Biological target: T2, hNR2B (Homo sapiens, UniProt Q13224)
T2 construct: expressed in transfected cells; host or cells: Xenopus laevis oocytes, cRNA-injected
Assay: as above
Format: cell-based
Conditions: hNR2B activity class, 50 μM glutamate, 30 μM glycine
Experimental: as §1, §2, §3

T2 sequence (Q13224 27-1484, other chains not shown): as above

| Structure (SMILES) | IC50 [nM] |
| --- | --- |
| CC(Oc1ccc2[nH]c(=O)ccc2c1)c1nnc(Nc2ccc(Cl)c(Cl)c2)o1 (single isomer, unassigned) [Example 110] | < 200 |
